Test results reported in article PMC7332124, “Design, One Pot Synthesis and Molecular Docking Studies of Substituted-1H-Pyrido[2,1-b] Quinazolines as Apoptosis-Inducing Anticancer Agents” (Asian Pacific Journal of Cancer Prevention : APJCP, 2020).
Entries after “also recorded” stand apart in the source; their conditions may differ.

Assays:
NCI-H460 [1] = assay: MTT cytotoxicity assay; assay type: cell-based, human; details: Homo sapiens, NCI-H460 lung carcinoma, 72 h, read-out: In vitro Inhibitory Concentration (IC50)
Method: (§1) Various cancer cells were used to screen anticancer activity of newly synthesized compounds. Lung (A549 and NCI-H460), colon (HCT-15 and HT-29), prostate (DU-145) cancer cells maintained in RPMI-1640 media while normal lung fibroblasts cell line (HFL-1) were maintained in F-12 k medium supplemented with 10% fetal bovine serum (FBS) with 1% antibiotic-antimycotic solution (Sigma). Cells were maintained in 5% CO2 with 98% relative humidity at 37 °C in incubator. When 80-90% of confluency is reached, they were sub-cultured using 0.25% trypsin/1 mM EDTA solution for further passage. The compounds in this series were dissolved in DMSO (1 %) to prepare the stock solution of 10 mM. Further dilutions were made accordingly with respective media to obtain the required concentrations.
(§2) MTT assay measures the reduction of MTT (3-(4,5-dimethylthiazol- 2-yl)-2,5-diphenyl tetrazolium bromide) by mitochondrial succinate dehydrogenase enzyme to insoluble formazan crystals. Since reduction of MTT occurs only in metabolically active cells, the level of activity is the measure of the viability of the cells.(Pordeli et al., 2017). Briefly, cells were plated in 96-well plates at a density of 3,000 to 6,000 cells per well in 100 µl of complete medium and allowed to grow overnight. Then the cells were treated with different concentrations of the synthesized compounds and incubated for 72 h. After the treatment, 100 µl of MTT (0.5 mg/ml) was added and incubated at 37 °C for 4 h. Then MTT reagent was aspirated and formazan crystals formed were dissolved by the addition of 200 µL of DMSO for 20 min at 37 °C. The formazan product quantity was measured by using a spectrophotometric microtiter plate reader (Spectra Max, M4 Molecular devices, USA) at 570 nm wavelength(Nekkanti et al., 2017).

A549 [2] = assay: MTT cytotoxicity assay; assay type: cell-based, human
Method: as §1, §2

HT-29 [3] = assay: MTT cytotoxicity assay; assay type: cell-based, human; details: Homo sapiens, HT-29 colorectal cancer, 72 h, read-out: In vitro Inhibitory Concentration (IC50)
Method: as §1, §2

[4] = system: HFL-1 normal lung fibroblasts; assay: MTT cytotoxicity assay; assay type: cell-based, human; details: Homo sapiens, HFL1, 72 h, read-out: In vitro Inhibitory Concentration (IC50)
Method: as §1, §2

HCT-15 [5] = assay: MTT cytotoxicity assay; assay type: cell-based, human; details: Homo sapiens, HCT-15 colon cancer, 72 h, read-out: In vitro Inhibitory Concentration (IC50)
Method: as §1, §2

DU-145 [6] = assay: MTT cytotoxicity assay; assay type: cell-based, human; details: Homo sapiens, DU-145 prostate cancer, 72 h, read-out: In vitro Inhibitory Concentration (IC50)
Method: as §1, §2

A549 cells [7] = assay: Clonogenic growth inhibition assay; assay type: cell-based, human; details: 1, 2.5 and 5 µM, 7 days
Method: The assay mainly tests ability to undergo “unlimited” division by every cell in the population and the hindrance of colony formation by compound 4i was determined in exponentially growing A549 cells by culturing 100-150 cells per well. […] Then, formed colonies were fixed with glutaraldehyde (6.0% v/v), stained with crystal violet (0.5% w/v). The treatment clearly […] the capacity to produce colonies in lung cancer cell population in a concentration dependent manner. […] The total colonies were counted by molecular imaging system Vilber Fusion Fx software and the values were represented as a percent colony forming ability.
Lung cancer cells A549 at exponentially phase were seeded into 12-well culture plates and kept overnight and treated with the compound 4q. Every 2 days the medium was replaced with the fresh medium. After 7 days of incubation, the colonies formed were fixed and stained with 1 % crystal violet in methanol for 3 h. The number of stained colonies were counted under chemdoc imaging system (Vilber Fusion Fx, France). Colony formation was calculated as a percentage to untreated control cultures (Moghaddam et al., 2009).

A549 cells [8] = assay: Morphological observation, phase contrast microscope; assay type: cell-based, human; details: 0.5, 1, 2.5 and 5 µM, 72 h
Method: A549 cells were plated in 12 well culture plates with a cell density of 1.2x10^5 cells/ml and allowed to adhere for 24 h. Then the cells were incubated with 0.5, 1, 2.5 and 5 µM concentrations of compound 4q. After 72 h treatment, cells were monitored for the morphological changes and the images were captured under a phase contrast microscope (Nikon, Inc. Japan) at 200X magnification.

A549 cells [9] = assay: Acridine orange/ethidium bromide (AO/EB) staining; assay type: cell-based, human; details: 0.5, 1, 2.5 and 5 µM, 72 h
Method: A549 cells were seeded at a concentration of 1.2x10^5 cells/ml and treated with various concentrations of compound 4q and the plates were incubated for 72 h. Then, 100 µl from fluorescent dyes comprising both Acridine Orange (Helfrich et al., 2016) and Ethidium Bromide (Vundru et al., 2013) were added into each well in equal volumes (10 µg/ml) respectively (Nekkanti et al., 2017), then the cells were Immediately visualized under fluorescence microscope with excitation (488 nm) and emission (550 nm) at 200X magnification.

NCI-H460 [10] = assay: Cell growth inhibition assay (MTT, day 0 subtracted); assay type: cell-based, human; details: Homo sapiens, 72 h, read-out: In vitro Growth Inhibitory Concentration (GI50)
Method: as §1
(§3) Briefly, the cells were seeded on to a 96-well plate in 100 µl of medium. Following 24 h MTT reagent was added in few wells and day 0 absorbance was analyzed, and then cells were treated with compounds and incubated for an additional 72 h. After the treatment, 100 µl of MTT (0.5 mg/ml) was added and incubated at 37 °C for 4 h. Then MTT reagent was suctioned, the insoluble formazan crystals were dissolved in DMSO and formazan product formed is measured at 570 nm wavelength. The day 0 absorbance was subtracted from the 72 h incubated plates and data were plotted as a percentage of untreated control (Dai et al., 2011).

A549 [11] = assay: as above; assay type: cell-based, human; details: Homo sapiens, 72 h, read-out: In vitro Growth Inhibitory Concentration (GI50)
Method: as §1, §3

HT-29 [12] = assay: as above; assay type: cell-based, human; details: Homo sapiens, 72 h, read-out: In vitro Growth Inhibitory Concentration (GI50)
Method: as §1, §3

[13] = system: HFL-1 normal lung fibroblasts; assay: as above; assay type: cell-based, human; details: Homo sapiens, HFL1, 72 h, read-out: In vitro Growth Inhibitory Concentration (GI50)
Method: as §1, §3

HCT-15 [14] = assay: as above; assay type: cell-based, human; details: Homo sapiens, 72 h, read-out: In vitro Growth Inhibitory Concentration (GI50)
Method: as §1, §3

DU-145 [15] = assay: as above; assay type: cell-based, human; details: Homo sapiens, 72 h, read-out: In vitro Growth Inhibitory Concentration (GI50)
Method: as §1, §3

- melting point: 185 to 186 °C
- GI50 (NCI-H460 [10]): 3.24 ± 0.4 µM
- GI50 (A549 [11]): 2.7 ± 0.18 µM
- GI50 (HT-29 [12]): 5.98 ± 0.18 µM
- GI50 (HCT-15 [14]): 6.27 ± 0.19 µM
- GI50 (DU-145 [15]): 9.64 ± 0.37 µM
SMILES: C1=CC2=NC3=C(CCCC3)C(c3cn(Cc4ccccc4)c4ccccc34)N2C=C1 (centres unmarked) [Compound 4i, 11-(1-benzyl-1H-indol-3-yl)-2,3,4, 11-tetrahydro-1H-pyrido [2,1-b] quinazoline]
- IC50 (NCI-H460 [1]): 5.53 ± 0.49 µM
- IC50 (A549 [2]; Homo sapiens, A549 adenocarcinoma (lung), MTT, 72 h, read-out: In vitro Inhibitory Concentration (IC50)): 4.57 ± 0.25 µM
- selectivity towards the cancer cells (A549 [2]; IC50 in HFL-1 normal fibroblasts versus lung cancer cells): approximately 2 fold
- IC50 (HT-29 [3]): 11.57 ± 0.04 µM
- IC50 [4]: 8.7 ± 0.36 µM
- IC50 (HCT-15 [5]): 11.3 ± 0.25 µM
- IC50 (DU-145 [6]): 9.15 ± 0.09 µM
- colony formation (A549 cells [7]): Reductions in the number of colonies; also recorded: strong anti-clonogenic effect
- morphological changes (phase contrast) (A549 cells [8]): shrinkage of cells and resulted in increased number of dead cells with increase in concentration
- apoptotic morphology by AO/EB staining (A549 cells [9]): induced apoptosis in A549 lung cancer cells
- GI50 [13]: 4.54 ± 0.59 µM
